# Measured values from article PMC7031696 (Cell chemical biology, 2019).
# Where two headings read alike, the source gives them in different places.
# Legend:
# [1] = test system: 3D7-A10 or Dd2-B2 parasites; assay: Resistance selections (single step, pulsing or ramping); assay type: cell-based, Plasmodium falciparum
# [2] = test system: synchronized Plasmodium falciparum parasites; assay: Microscopical study of cell morphology after 8-h exposures (Figure S4); assay type: cell-based; settings: 3× the IC50^8h of the most sensitive life stage, 8-h intervals
# [3] = test system: Plasmodium falciparum 3D7-A10 parasites; assay: Stage specificity assay (8-h exposure of synchronized stages, IC50^8h); assay type: cell-based; settings: for IC50: Plasmodium falciparum
# [4] = test system: 3D7-MR4 trophozoite parasite-infected RBCs; assay: Metabolomic profiling (hydrophilic metabolite changes, UHPLC-MS); assay type: cell-based, Plasmodium falciparum
# [5] = test system: asynchronous 3D7-A10 parasite cultures; assay: Standard 72-h exposure asexual blood stage susceptibility assay (IC50^72h); assay type: cell-based, Plasmodium falciparum; settings: Plasmodium falciparum, 3D7, 72 h, read-out: Overall (72hr assay) Mean IC50 (IC50^72h)
# [6] = 10 × IC50^72h, 2.5 hr, trophozoites
compound,measurement,setting,value
CC(C)(C)OC(=O)N1CCN(c2ccccc2NC(=O)c2cccc(C(F)(F)F)c2Oc2ccc(F)cc2)CC1 [MMV030666],outcome of ramping resistance selection,"[1]; 3D7-A10, 1 × to 1.8 × IC50^72h over 3 months",did not produce resistance
same,outcome of resistance selections (continuous exposure or pulsing),"[1]; 5 × 10^8 to 1 × 10^9 3D7-A10 or Dd2-B2 parasites, 3–6 × IC50^72h",failed to yield resistance
same,minimum inocula of resistance,[1]; from failed selections in 3D7-A10 / Dd2-B2,above 5 × 10^8 parasites
same,digestive vacuole morphology,[2],bloated digestive vacuoles
same,most susceptible stage by cell morphology,[2],late trophozoite stage
same,Ratio lowest IC50 8hr/IC50 72hr,[3]; 3D7-A10,1.9
same,killing in stage specificity assay,"[3]; 8-h exposures, survival curves",incomplete killing
same,IC50,"[3]; 3D7, read-out: Early rings Mean IC50 (IC50^8h), 8-h exposure 0–8 hr, 3D7-A10, survival at 60 h",10.3 µM
same,IC50,"[3]; 3D7, read-out: Early trophozoites Mean IC50 (IC50^8h), 8-h exposure 16–24 hr, 3D7-A10, survival at 60 h",5.12 µM
same,IC50,"[3]; 3D7, read-out: Late rings Mean IC50 (IC50^8h), 8-h exposure 8–16 hr, 3D7-A10, survival at 60 h",11.4 µM
same,IC50,"[3]; 3D7, read-out: Late trophozoites Mean IC50 (IC50^8h), 8-h exposure 24–32 hr, 3D7-A10, survival at 60 h",0.858 µM
same,IC50,"[3]; 3D7, read-out: Schizonts Mean IC50 (IC50^8h), 8-h exposure 32–40 hr, 3D7-A10, survival at 60 h",4.19 µM
same,Stage of peak activity (Figure 6),[3]; period when the parasite was most susceptible (lowest IC50^8h),late trophozoites
same,Peak Activity (Table S1),[3]; stage(s) with the lowest IC50^8h,Late Trophs
same,metabolic signature: increases in the pyrimidine precursors dihydroorotate and N-carbamoyl-L-aspartate (mETC disruption),[4]; [6],observed
same,orotidine 5-P levels,[4]; [6],decreased
same,peptide levels (hemoglobin catabolism signature),[4]; [6],decreased peptide levels
same,Log2(fold changes) 3-phosphoglycerate,"[4]; metabolite 3-phosphoglycerate, log2 fold change",0.0028
same,Log2(fold changes) 4-Pyridoxic acid,"[4]; metabolite 4-Pyridoxic acid, log2 fold change",-0.4279
same,Log2(fold changes) 4-aminobutyrate,"[4]; metabolite 4-aminobutyrate, log2 fold change",-0.0634
same,Log2(fold changes) 4-phosphopantetheine,"[4]; metabolite 4-phosphopantetheine, log2 fold change",-0.3320
same,Log2(fold changes) 4-phosphopantothenate,"[4]; metabolite 4-phosphopantothenate, log2 fold change",-1.0807
same,Log2(fold changes) 5-aminopentanoic acid,"[4]; metabolite 5-aminopentanoic acid, log2 fold change",0.0000
same,Log2(fold changes) 5-methyl-THF,"[4]; metabolite 5-methyl-THF, log2 fold change",0.0000
same,Log2(fold changes) 5-phosphoribosyl-1-pyrophosphate,"[4]; metabolite 5-phosphoribosyl-1-pyrophosphate, log2 fold change",-0.6917
same,Log2(fold changes) 6-phospho-D-gluconate,"[4]; metabolite 6-phospho-D-gluconate, log2 fold change",-0.3165
same,Log2(fold change) HVDD,[4]; metabolite HVDD,-4.9061
same,Log2(fold change) Hydroxyisocaproic acid,[4]; metabolite Hydroxyisocaproic acid,0.0000
same,Log2(fold change) IDP,[4]; metabolite IDP,0.0000
same,Log2(fold change) IMP,[4]; metabolite IMP,0.0932
same,Log2(fold change) Inositol,[4]; metabolite Inositol,0.0000
same,Log2(fold change) Isopentyl-PP,[4]; metabolite Isopentyl-PP,0.0000
same,Log2(fold change) L-arginino-succinate,[4]; metabolite L-arginino-succinate,-1.0911
same,Log2(fold change) LD,[4]; metabolite LD,-0.6358
same,Log2(fold change) Myristoyl/tetradecanoyl-CoA,[4]; metabolite Myristoyl/tetradecanoyl-CoA,0.0000
same,Log2(fold change) N-Acetyl-L-alanine,[4]; metabolite N-Acetyl-L-alanine,-0.5215
same,Log2(fold change) N-acetyl-L-ornithine,[4]; metabolite N-acetyl-L-ornithine,0.0000
same,Log2(fold change) N-acetyl-glucosamine-1/6-phosphate,[4]; metabolite N-acetyl-glucosamine-1/6-phosphate,-0.1279
same,Log2(fold change) N-acetyl-glutamate,[4]; metabolite N-acetyl-glutamate,0.2373
same,Log2(fold change) N-acetyl-glutamine,[4]; metabolite N-acetyl-glutamine,-0.0526
same,Log2(fold change) N-carbamoyl-L-aspartate,[4]; metabolite N-carbamoyl-L-aspartate,1.9816
same,Log2(fold change) NAD+,[4]; metabolite NAD+,-0.1975
same,Log2(fold change) NADH,[4]; metabolite NADH,1.6901
same,Log2(fold change) NADP+,[4]; metabolite NADP+,-0.2280
same,Log2(fold change) NADPH,[4]; metabolite NADPH,1.2462
same,Log2(fold change) O-acetyl-L-serine,[4]; metabolite O-acetyl-L-serine,0.0000
same,Log2(fold change) Octoluse 8/1P,[4]; metabolite Octoluse 8/1P,0.2225
same,Log2(fold change) Octoluse Bisphosphate,[4]; metabolite Octoluse Bisphosphate,-1.0839
same,Log2(fold change) PD,[4]; metabolite PD,-3.4872
same,Log2(fold change) PE,[4]; metabolite PE,-3.3751
same,Log2(fold change) PEE,[4]; metabolite PEE,-2.7815
same,Log2(fold change) PEEK,[4]; metabolite PEEK,-2.6677
same,Log2(fold change) PVNF,[4]; metabolite PVNF,-4.4222
same,Log2(fold change) Pyroglutamic acid,[4]; metabolite Pyroglutamic acid,0.3360
same,Log2(fold change) Pyrophosphate,[4]; metabolite Pyrophosphate,0.0000
same,Log2(fold change) Ribose-5-phosphate,[4]; metabolite Ribose-5-phosphate,-0.7810
same,Log2(fold change) S-adenosyl-L-homocysteine,[4]; metabolite S-adenosyl-L-homocysteine,0.2136
same,Log2(fold change) S-adenosyl-L-methioninamine,[4]; metabolite S-adenosyl-L-methioninamine,0.0000
same,Log2(fold change) S-adenosyl-L-methionine,[4]; metabolite S-adenosyl-L-methionine,0.0000
same,Log2(fold change) S-methyl-5'-thioadenosine,[4]; metabolite S-methyl-5'-thioadenosine,0.3369
same,Log2(fold change) SD,[4]; metabolite SD,-2.5205
same,Log2(fold change) SDL,[4]; metabolite SDL,-4.4795
same,Log2(fold change) SID,[4]; metabolite SID,0.0000
same,Log2(fold change) Sedoheptulose bisphosphate,[4]; metabolite Sedoheptulose bisphosphate,-0.5250
same,Log2(fold change) Thiamine pyrophosphate,[4]; metabolite Thiamine pyrophosphate,-0.1162
same,Log2(fold changes) UDP-D-glucose,"[4]; metabolite UDP-D-glucose, log2 fold change",-0.1835
same,Log2(fold changes) UDP-D-glucuronate,"[4]; metabolite UDP-D-glucuronate, log2 fold change",-0.4871
same,Log2(fold changes) UDP-N-acetyl-glucosamine,"[4]; metabolite UDP-N-acetyl-glucosamine, log2 fold change",-0.5093
same,Log2(fold changes) UDP,"[4]; metabolite UDP, log2 fold change",-1.4928
same,Log2(fold changes) UMP,"[4]; metabolite UMP, log2 fold change",-0.5598
same,Log2(fold changes) UTP,"[4]; metabolite UTP, log2 fold change",-1.9407
same,Log2(fold change) hydroxyphenylpyruvate,[4]; metabolite hydroxyphenylpyruvate,0.0000
same,Log2(fold change) hydroxyproline/Aminolevulinate,[4]; metabolite hydroxyproline/Aminolevulinate,-0.0744
same,Log2(fold change) hypoxanthine,[4]; metabolite hypoxanthine,0.1169
same,Log2(fold change) indole,[4]; metabolite indole,0.3440
same,Log2(fold change) inosine,[4]; metabolite inosine,-0.2932
same,Log2(fold change) isoleucine,[4]; metabolite isoleucine,-0.1542
same,Log2(fold change) lactate,[4]; metabolite lactate,-0.3562
same,Log2(fold change) leucine,[4]; metabolite leucine,-0.3099
same,Log2(fold change) lysine,[4]; metabolite lysine,0.0000
same,Log2(fold change) malate,[4]; metabolite malate,-1.0993
same,Log2(fold change) maleic acid,[4]; metabolite maleic acid,-0.3336
same,Log2(fold change) methionine,[4]; metabolite methionine,-0.1260
same,Log2(fold change) myo-inositol,[4]; metabolite myo-inositol,0.0000
same,Log2(fold change) nicotinamide mononucleotide,[4]; metabolite nicotinamide mononucleotide,0.0000
same,Log2(fold change) nicotinate,[4]; metabolite nicotinate,-0.1069
same,Log2(fold change) ornithine,[4]; metabolite ornithine,0.0000
same,Log2(fold change) orotate,[4]; metabolite orotate,-0.1643
same,Log2(fold change) orotidine-5'-phosphate,[4]; metabolite orotidine-5'-phosphate,-1.8500
same,Log2(fold change) oxaloacetate,[4]; metabolite oxaloacetate,0.0000
same,Log2(fold change) p-aminobenzoate,[4]; metabolite p-aminobenzoate,0.0000
same,Log2(fold change) p-hydroxybenzoate,[4]; metabolite p-hydroxybenzoate,0.0000
same,Log2(fold change) pantothenate,[4]; metabolite pantothenate,-0.0587
same,Log2(fold change) phenylalanine,[4]; metabolite phenylalanine,-0.5281
same,Log2(fold change) phenylpyruvate,[4]; metabolite phenylpyruvate,0.0000
same,Log2(fold change) phosphoenolpyruvate,[4]; metabolite phosphoenolpyruvate,0.0797
same,Log2(fold change) prephenate,[4]; metabolite prephenate,0.0000
same,Log2(fold change) proline,[4]; metabolite proline,-0.4182
same,Log2(fold change) pyridoxine,[4]; metabolite pyridoxine,0.0000
same,Log2(fold change) pyruvate,[4]; metabolite pyruvate,-1.3359
same,Log2(fold change) riboflavin,[4]; metabolite riboflavin,-0.6446
same,Log2(fold change) ribose,[4]; metabolite ribose,0.0000
same,Log2(fold change) ribose-phosphate,[4]; metabolite ribose-phosphate,0.0000
same,Log2(fold change) ribulose-5-phosphate,[4]; metabolite ribulose-5-phosphate,-0.3252
same,Log2(fold change) serine,[4]; metabolite serine,-0.1988
same,Log2(fold change) sn-glycerol-3-phosphate,[4]; metabolite sn-glycerol-3-phosphate,0.6292
same,Log2(fold change) succinate/Methylmalonic acid,[4]; metabolite succinate/Methylmalonic acid,-1.4071
same,Log2(fold change) succinyl-CoA/methylmalonyl-CoA,[4]; metabolite succinyl-CoA/methylmalonyl-CoA,-0.7249
same,Log2(fold change) taurine,[4]; metabolite taurine,0.0000
same,Log2(fold change) thiamine,[4]; metabolite thiamine,0.0000
same,Log2(fold change) threonine/homoserine,[4]; metabolite threonine/homoserine,-0.8029
same,Log2(fold change) thymidine,[4]; metabolite thymidine,0.0000
same,Log2(fold changes) thymine,"[4]; metabolite thymine, log2 fold change",0.0000
same,Log2(fold changes) trehalose-6-Phosphate,"[4]; metabolite trehalose-6-Phosphate, log2 fold change",0.0000
same,Log2(fold changes) tryptophan,"[4]; metabolite tryptophan, log2 fold change",0.1993
same,Log2(fold changes) tyrosine,"[4]; metabolite tyrosine, log2 fold change",-0.2219
same,Log2(fold changes) uridine,"[4]; metabolite uridine, log2 fold change",0.0000
same,IC50,[5],0.462 µM
